# Results from patent US10660900B2 (priority 2014, dated 2020).
# Where “and” joins values, the source holds several entries; their conditions need not be identical. Identical values can stand only once. Entries after “also recorded” stand apart in the source; their conditions may differ. Like-named read-outs stand apart in the source and are kept apart here.
# Key:
# [1] = Cold pressor test in healthy volunteers; type: in vivo, human; settings: 3-60 mg single oral doses versus placebo; hand immersion duration and VAS pain score
# Experimental: Analgesic effect was assessed based on duration of hand immersion in ice water and on visual analog scale (VAS) pain scores upon hand removal from the water bath.
# (§1) Safety and tolerability of noribogaine were tested in the group of volunteers from Example 1. Cold pressor testing was conducted in 1° C. water according to the method of Mitchell et al. (J Pain 5:233-237, 2004) pre-dose, 6, 24, 48, 72 and 216 hours post-dosing. Safety evaluations included clinical monitoring, recording of adverse events (AEs), safety laboratory tests, vital signs, ECG telemetry from −2 h to 6 h after dosing, and 12-lead electrocardiograms (ECGs) up to 216 hours post-dosing.
# [2] = Safety and tolerability in healthy volunteers (adverse events, ECG, vital signs, oximetry); type: in vivo, human
# Experimental: Pulse oximetry and capnography data were collected continuously using a GE Carescape B650 monitoring system from 2 hours prior to dosing and until six hours after dosing, and thereafter at 12, 24, 48 and 72 hours post-dosing. Additional oximetry data were collected at 120, 168 and 216 hours. Pupillary miosis was assessed by pupillometry. Dark-adapted pupil diameter was measured in triplicate using a Neuroptics PLR-200 pupillometer under standardized light intensity (<5 lux) pre-dose, and at 2, 4, 6, 12, 24, 48, 72, 96, 120, 168 and 216 hours post-dosing.
# as §1
# [3] = Time to resumption of opioid substitution treatment and withdrawal scales (COWS, SOWS, OOWS); type: in vivo, human
# human OPRK = assay: biochemical; type: binding
# calf OPRM = calf OPRM (Bos taurus, UniProt P79350); settings: cited from earlier work; for Ki: read-out: Ki
# Sequence of calf OPRM (P79350 whole entry): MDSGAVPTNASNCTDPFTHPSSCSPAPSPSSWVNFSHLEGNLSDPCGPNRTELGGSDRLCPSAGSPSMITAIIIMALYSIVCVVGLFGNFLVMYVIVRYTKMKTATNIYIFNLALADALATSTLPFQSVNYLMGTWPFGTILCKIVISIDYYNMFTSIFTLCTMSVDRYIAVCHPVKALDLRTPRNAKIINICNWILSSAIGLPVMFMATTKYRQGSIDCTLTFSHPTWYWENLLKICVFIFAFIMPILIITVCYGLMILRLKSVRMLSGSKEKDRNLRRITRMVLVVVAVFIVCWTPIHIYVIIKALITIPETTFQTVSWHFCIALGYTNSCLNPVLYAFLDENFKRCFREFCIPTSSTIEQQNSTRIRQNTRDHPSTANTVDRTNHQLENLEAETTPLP
# [4] = test system: human opioid receptor delta (OPRD); settings: Pearl, Herrick-Davis et al. 1995; cited from earlier work
# [5] = target: opioid receptor delta (OPRD) (Bos taurus, UniProt F1N083); settings: printed in the SEM column; literature; cited from earlier work
# Sequence of opioid receptor delta (OPRD) (F1N083 1-372): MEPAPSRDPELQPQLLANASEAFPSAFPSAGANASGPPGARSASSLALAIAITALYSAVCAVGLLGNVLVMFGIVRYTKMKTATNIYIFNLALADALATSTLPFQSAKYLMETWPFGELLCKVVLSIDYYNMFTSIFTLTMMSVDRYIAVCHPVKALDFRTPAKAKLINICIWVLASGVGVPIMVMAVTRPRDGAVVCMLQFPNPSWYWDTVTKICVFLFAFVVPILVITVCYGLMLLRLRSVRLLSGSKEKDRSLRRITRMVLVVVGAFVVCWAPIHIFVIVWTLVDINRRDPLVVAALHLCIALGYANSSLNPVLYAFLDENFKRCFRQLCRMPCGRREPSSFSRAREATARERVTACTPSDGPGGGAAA
# [6] = rats; centrally mediated; Baumann, Rothman et al. 2001; cited from earlier work
# OPRK [7] = target: T1, OPRK (Homo sapiens, UniProt P41145); assay: cell-based; parameters: host or cells: CHO-K1
# T1 sequence (P41145 whole entry): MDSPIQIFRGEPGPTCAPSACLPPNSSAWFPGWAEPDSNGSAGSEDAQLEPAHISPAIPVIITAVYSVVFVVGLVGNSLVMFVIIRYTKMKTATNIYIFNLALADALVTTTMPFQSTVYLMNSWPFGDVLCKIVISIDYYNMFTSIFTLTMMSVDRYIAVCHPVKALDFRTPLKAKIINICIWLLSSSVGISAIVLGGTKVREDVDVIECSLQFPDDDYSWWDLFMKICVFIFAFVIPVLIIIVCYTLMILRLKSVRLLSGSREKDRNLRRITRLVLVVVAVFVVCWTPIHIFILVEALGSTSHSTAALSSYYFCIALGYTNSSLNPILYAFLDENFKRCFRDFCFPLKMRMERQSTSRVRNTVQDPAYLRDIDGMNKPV
# OPRK [8] = target: T1, OPRK; assay: biochemical; type: binding; parameters: expressed in transfected cells; host or cells: CHO-K1; settings: [3H]-U69,593 Binding; This work
# OPRK [9] = target: T1, OPRK; assay: biochemical; parameters: expressed in transfected cells; host or cells: CHO-K1
# OPRK [10] = target: T1, OPRK; assay: Bias quantification G-protein/Beta-arrestin2; parameters: expressed in transfected cells; host or cells: CHO-K1
# Experimental: Coupling efficiency (e-coupling) values indicated the relationship between the apparent binding affinity Ki versus the apparent functional potency EC50 of a given agonist ligand and used the equation pKi-pEC50. […] For inhibitory ligands, e-signal was calculated using maximal level of inhibition (Imax) normalized from 0 (basal, buffer) to 1 (agonist without inhibitor). Bias-coupling (quantification of pathway bias) was evaluated by subtracting the EC50 or the Ke issued from the G-protein pathway assays by those issued from β-arrestin pathway assays for a given ligand and in a linear (nM) scale. Bias-efficacy in favor of the G-protein pathway was evaluated by dividing the functional activation and the functional inhibition maximum responses (e-signal) from the G-protein pathway by the beta-arrestin pathway assays for a given ligand.
# [11] = Single ascending oral dose pharmacokinetics of noribogaine in healthy volunteers (plasma and urine, LCMSMS); settings: for CL/F: mean (SD), n = 6
# human OPRM [12] = target: T2, human OPRM (Homo sapiens, UniProt P35372); assay: biochemical; type: binding; parameters: expressed in transfected cells; host or cells: CHO-K1 (cell line provided by Dr. Toll, Torrey Pines Institute); membranes prepared in house
# T2 sequence (P35372 whole entry): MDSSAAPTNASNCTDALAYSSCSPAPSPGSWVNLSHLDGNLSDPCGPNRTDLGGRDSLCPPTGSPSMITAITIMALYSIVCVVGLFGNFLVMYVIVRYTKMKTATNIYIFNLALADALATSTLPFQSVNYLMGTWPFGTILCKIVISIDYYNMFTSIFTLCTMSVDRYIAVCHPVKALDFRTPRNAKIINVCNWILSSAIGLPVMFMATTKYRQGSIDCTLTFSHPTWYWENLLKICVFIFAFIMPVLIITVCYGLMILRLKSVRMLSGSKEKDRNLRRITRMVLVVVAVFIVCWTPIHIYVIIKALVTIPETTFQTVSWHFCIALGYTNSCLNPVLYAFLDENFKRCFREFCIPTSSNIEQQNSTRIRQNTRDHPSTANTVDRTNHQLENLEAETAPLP
# human OPRM [13] = target: T2, human OPRM; assay: biochemical; parameters: expressed in transfected cells; host or cells: CHO-K1 (cell line provided by Dr. Toll, Torrey Pines Institute); membranes prepared in house
structure (smiles),measurement,setting,value
"CC[C@H]1CC2C[C@H]3c4[nH]c5ccc(O)cc5c4CCN(C2)C13 [Noribogaine, noribogaine]",analgesic effect in the cold pressor test,[1],no analgesic effect
same,number of adverse events reported,"[2]; 3 mg dose group, two subjects",five
same,"adverse events, Mild",[2]; 3 mg noribogaine,Back pain; also recorded: Dizziness; also recorded: Epistaxis; also recorded: Headache
same,"adverse events, Moderate",[2]; 3 mg noribogaine,Headache
same,number of adverse events reported,"[2]; 10 mg dose group, single subject",one
same,"adverse events, Mild",[2]; 10 mg noribogaine,Headache
same,number of adverse events reported,"[2]; 30 mg dose group, single subject",one
same,"adverse events, Mild",[2]; 30 mg noribogaine,Headache
same,"oximetry, capnography, respiratory rate",[2]; 3-60 mg single oral doses,"no changes in oximetry or capnography, or changes in respiratory rate"
same,vital signs and safety laboratory tests,[2]; 3-60 mg single oral doses,no changes in vital signs or safety laboratory tests of note
same,QTcF values above 500 msec,"[2]; all dose groups, any time",no QTcF values >500 msec
same,single increase in QTcF,"[2]; one subject, 10 mg noribogaine, 24 hours post-dosing",> 60 ms
same,"withdrawal symptoms (COWS, OOWS, SOWS), first six hours after dosing",[3]; 120 mg noribogaine,fewer withdrawal symptoms than the other patients
same,average time to resumption of opioids (OST),[3]; single 120 mg dose,greater than 20 hours
same,"ΔpKi = pKi(OPRK) − pKi(OPRM), OPRK Specificity",human OPRK; from literature (or literature/this work) values,0.4
same,"ΔpKi = pKi(OPRK) − pKi(OPRM), OPRK Specificity",human OPRK; from values of this work,0.3
same,Ki,calf OPRM; calf OPRM,1.52 µM
same,pKi,"calf OPRM; calf receptor, literature",5.6
same,Ki,"calf OPRM; calf receptor, literature",2.66 µM
same,less affine at OPRD than at OPRK,[4],~30 ×
same,Ki,[5],24.7 µM
same,release of prolactin,[6],triggered the release of prolactin
same,EC50,OPRK [7],0.265 µM
same,e-coupling (pKi-pEC50),OPRK [7]; Activation,−0.43
same,"e-coupling, Beta-Arrestin2 Pathway",OPRK [7]; Activation,−0.43
same,"e-signal, Beta-Arrestin2 Pathway",OPRK [7]; Activation,0.13
same,pEC50,OPRK [7]; Activation,6.6
same,Emax,"OPRK [7]; CHO-K1, read-out: Efficacy (Emax)",12.6 ± 3%
same,inhibition of agonist response,OPRK [7]; Dynorphin A at EC80,~60%
same,"e-coupling, Beta-Arrestin2 Pathway",OPRK [7]; Inhibition,−0.44
same,"e-signal, Beta-Arrestin2 Pathway",OPRK [7]; Inhibition,0.60
same,e-coupling (pKi-pKe),OPRK [7]; inhibitory component,−0.44
same,Efficacy (inhibition),OPRK [7]; inhibitory component against Dynorphin A,−60~ %
same,pKi,OPRK [8],6.1
same,Efficacy (Emax),OPRK [9],70%
same,Efficacy (inhibition),OPRK [9],−30% and −25%
same,e-coupling (pKi-pEC50),OPRK [9],1.08
same,"e-coupling, G-protein Pathway",OPRK [9],1.72 and 1.08
same,own reduced signal level to which rival agonist signal is leveled down,OPRK [9],70%
same,pEC50,OPRK [9],5.1
same,Ki,OPRK [9]; Ke,12 µM and 24 µM
same,EC50,OPRK [9]; read-out: EC50,8.75 µM and 8.7 µM
same,Emax,OPRK [9]; read-out: Efficacy (Emax),72 ± 3.8%
same,efficacy bias relative to 6′GNTI,OPRK [10],2.4 ×
same,"Bias-coupling, Bias G-protein/Beta-arrestin2",OPRK [10]; Activation,32
same,"Bias-efficacy, Bias G-protein/Beta-arrestin2",OPRK [10]; Activation,0.59
same,"Bias-coupling, Bias G-protein/Beta-arrestin2",OPRK [10]; Inhibition,144
same,"Bias-efficacy, Bias G-protein/Beta-arrestin2",OPRK [10]; Inhibition,−0.35
same,CL/F,[11]; 3 mg single oral noribogaine,41.4 (7.0) L/h
same,CL/F,[11]; 10 mg single oral noribogaine,42.3 (12.0) L/h
same,CL/F,[11]; 30 mg single oral noribogaine,46.9 (16.4) L/h
same,CL/F,[11]; 60 mg single oral noribogaine,34.0 (11.4) L/h
same,dose relation of Cmax and AUC,[11]; 3-60 mg single oral doses,increased linearly with dose
same,Volume of distribution,[11]; across dose groups,1417 to 3086 L
same,time of peak concentrations after oral noribogaine dosing,"[11]; plasma, across dose groups",2 to 3 h
same,pKi,human OPRM [12],5.8
same,Efficacy (Emax),human OPRM [13],9.4%
same,Efficacy (inhibition),human OPRM [13],−100~ %
same,e-coupling (pKi-pEC50),human OPRM [13],1.02
same,e-coupling (pKi-pKe),human OPRM [13],1.10
same,pEC50,human OPRM [13],4.8
same,right-shift of EC50 of DAMGO and morphine,human OPRM [13],~1 log
same,Ki,human OPRM [13]; Ke,19 µM and 28 µM
same,Emax,human OPRM [13]; read-out: Efficacy (Emax),10%
